{"source": "paper PMC8217011", "about": "“Natural brominated phenoxyphenols kill persistent and biofilm-incorporated cells of MRSA and other pathogenic bacteria” (Applied Microbiology and Biotechnology, 2020)", "key": {"[1]": {"test_system": "stationary phase-induced persistent cells of MRSA strain Mu50", "experiment": "Persister killing kinetics (CFU plating)", "assay_type": "cell-based, Staphylococcus aureus", "details": "start 10^8 CFU/mL", "procedure": "For persister killing kinetics, cells were grown overnight until a density of OD600 nm > 5.0 was reached and then washed three times with PBS. Next, cell density was adjusted to 10^8 CFU/mL in 5 mL PBS. […] Analysis was performed as described above."}, "[2]": {"test_system": "actively replicating MRSA strain Mu50", "experiment": "Killing kinetics, actively replicating cells (CFU plating)", "assay_type": "cell-based, Staphylococcus aureus", "details": "MHB, start 10^6 CFU/mL; PPs at 4× MIC, moxifloxacin 20 μM; detection limit 10^2 CFU/mL", "procedure": "S. aureus cells were freshly incubated in MHB until an OD600 nm of approx. 0.6 was reached. Next, the cells were diluted to 10^6 CFU/mL in 5 mL MHB. […] At certain time points (0, 0.5, 1, 3, 6, 8, 24 h), 100 μL was removed from the culture, diluted and plated onto MHA plates. After 24-h incubation, colonies were counted and viability (expressed as colony-forming units per mL (CFU/mL)) was calculated considering the dilution factor."}, "pre-formed MRSA biofilms": {"test_system": "pre-formed MRSA biofilms", "experiment": "Biofilm viability by CFU plating", "assay_type": "cell-based, Staphylococcus aureus", "details": "24 h of treatment, 4× minimal biofilm inhibitory concentration, moxifloxacin 20 μM", "procedure": "Additionally, biofilm viability was quantified by CFU plating. Biofilms were pregrown as described above and treated for 24 h with 4× minimal biofilm inhibitory concentrations as calculated from the Resazurin reduction assay. Biofilms were dispersed by pipetting followed by sonification in a water bath. Dilutions were plated on Mueller-Hinton agar plates and incubated overnight at 37 °C."}, "[3]": {"test_system": "Escherichia coli ATCC 25922", "experiment": "MIC determination (microbroth dilution)", "assay_type": "cell-based", "details": "colistin alone", "procedure": "(§1) Cultures were, if not stated differently, incubated at 37 °C with aeration and shaking (150 rpm) in Mueller-Hinton broth (MHB). Bacteria were freshly incubated at the next morning from an overnight pre-culture for actively growing bacteria to an OD600 nm of approx. 0.6. To ensure persistent growth form, the bacteria were grown overnight until a density at OD600 nm > 5.0 was obtained. For biofilm growth, some colonies from a Mueller-Hinton agar (MHA) plate were picked and resuspended in MHB. Cell density has been adjusted to OD600 nm = 0.8, and cells were sown into a flat-bottom 96-well plate to be incubated statically at 37 °C with aeration. Studies were mainly performed with S. aureus Mu50.\n(§2) The minimal inhibitory concentration (MIC) has been determined according to the CSLI guidelines (CLSI [2012]). Briefly, in a sterile polystyrene U-bottom 96-well plate, a 2-fold serial dilution ranging from 100 to 0.78 μM of testing compounds has been prepared in 50 μL MHB. A freshly inoculated S. aureus culture was grown until OD600 nm of approx. 0.6 and diluted to 10^6 CFU/mL in MHB. Finally, 50 μL of the latter cell suspension was added to each well and then incubated statically for 18–24 h at 37 °C. MIC was determined using BacTiterGlo ATP assay (Promega, Madison, WI, USA) and Tecan Infinite F200 Pro (Tecan, Männedorf, Switzerland). Moxifloxacin and DMSO were used as positive and negative control, respectively. Sublethal concentrations of colistin (0.1 μM) were used in some experiments to increase the permeability of the gram-negative cell envelope for compound testing. For E. cloacae, a broth microdilution assay was performed using a serial 2-fold dilution in 96-well flat-bottomed plates (Falcon, BD Bioscience, Heidelberg) of both PPs in broth LB medium (Roth, Karlsruhe) at a concentration range of 50–0.024 μM."}, "[4]": {"test_system": "Acinetobacter baumannii ATCC 747", "experiment": "MIC determination (microbroth dilution)", "assay_type": "cell-based", "details": "colistin alone", "procedure": "as §1, §2"}, "gram-negative bacteria": {"test_system": "gram-negative bacteria", "experiment": "MIC determination, summary over gram-negative strains", "assay_type": "cell-based", "details": "colistin concentration of 0.1 μM (0.12 μg/mL)", "procedure": "as §2"}}, "note": "Several values for one entry are separate records, joined by “and”; a condition that tells them apart may be missing. Identical values can stand only once."}
{"compound": "CCCCCCCCCCCCCCCCn1cc[n+](Cc2ccccc2)c1C.[I-]", "note": "[NH125, reference compound]", "values": [{"measurement": "time until viability reduced to the detection limit", "setting": "[1]; PPs at 4× MIC, NH125 10 μM, detection limit 10^2 CFU/mL", "result": "~3", "unit": "h"}]}
{"compound": "COc1c(N2C[C@@H]3CCCN[C@@H]3C2)c(F)cc2c(=O)c(C(=O)O)cn(C3CC3)c12", "note": "[moxifloxacin, reference compound]", "values": [{"measurement": "time until viability reached the detection limit", "setting": "[2]", "result": 3, "unit": "h"}, {"measurement": "decrease of viability of persistent cells after 24 h", "setting": "[1]; 3-bromo-PP at 4× MIC, moxifloxacin control, 24 h", "result": "did not show any effect"}, {"measurement": "reduction in viable cell counts in biofilms", "setting": "pre-formed MRSA biofilms", "result": "virtually no effect"}]}
{"compound": "colistin [reference compound]", "values": [{"measurement": "MIC", "setting": "[3]", "result": "0.78 μM and 0.90 μg/mL"}, {"measurement": "MIC", "setting": "[4]", "result": "0.78 μM and 0.90 μg/mL"}, {"measurement": "growth of gram-negative bacteria", "setting": "gram-negative bacteria", "result": "not inhibited"}]}
